# Marks after values point to notes of the source that are not given here.
# Legend:
# [1] = test system: rat model with carbon tetrachloride-induced liver cirrhosis; assay: Rat model with carbon tetrachloride-induced liver cirrhosis, Experimental Example 2 (compound 1 0.1 mg/mL in potable water); assay type: in vivo; details: for HA / ALB / ALT / AST / T-Bil: blood; for HA / ALB / ALT / AST / T-Bil / Body weight / Hepatic relative weight / Pancreatic relative weight / Number of animals with ascites retention: n = 10
# Method: (§1) To six-week-old Wister male rats, 3 mL/kg of olive oil containing 40% of carbon tetrachloride or olive oil only were subcutaneously administered twice per week for eight weeks. On a parallel with the administration of the carbon tetrachloride, potable water in which 2,3,5-trimethyl hydroquinone-1-hexylether (compound 1) of the hydroquinone derivative identified by the aforementioned general chemical formula (1) is dissolved at a concentration of 0.3 mg/mL was given to one group of rats daily. Simultaneously, to another groups of rats, only water was given.
# (§2) There were adopted four animal groups, i.e. olive oil administration group, olive oil-plus-compound 1 administration group, carbon tetrachloride administration group, and carbon tetrachloride-plus-compound 1 administration group, in the experimental example. Each group consists of ten animals. The animals were slaughtered eight weeks after start of administration of the carbon tetrachloride to carry out an examination. The examination items include ELISA measurement of the serum antibody valency of Naofen and RT-PCR measurement of the mRNA-expression level of Naofen in the liver.
# An experimental examination was carried out with a rat model with carbon tetrachloride-induced liver cirrhosis in the same manner as the aforementioned experimental Example 1 except for use of the compound 1 with a concentration of 0.1 mg/mL. The examination includes measurements of some hepatic damage indexes such as blood AST, ALT, albumin (ALB) and total bilirubin (T-Bil), measurement of hyaluronan (HA) concentration serving as a maker of hepatic fibrosis, autopsy finding, measurements of body weight and organ weight, measurements of expression levels of TGF-β1 mRNA and type-I collagen mRNA in biologic cells by RT-PCR, and a histopathologic inspection.
# The examination results of measurements of the liver weight, spleen weight, and number of animals with ascites retention are shown in Table 3. FIGS. 4 and 5 are photographs of hepatic tissues taken by using a Masson staining method and an immunohistochemical staining method (A: olive oil administration case, B: carbon tetrachloride administration case, C: olive oil-plus-compound 1 administration case, and D: carbon tetrachloride-plus-compound 1 administration case; and horizontal line on the bottom right: 100 μm).
# [2] = test system: rat model with carbon tetrachloride-induced liver cirrhosis; assay: Rat model with carbon tetrachloride-induced liver cirrhosis, Experimental Example 1 (compound 1 0.3 mg/mL in potable water); assay type: in vivo
# Method: as §1, §2
# [3] = CCl4 + Compound 1 0.1 mg/mL in potable water, 8 weeks, mean ± SD
# [4] = CCl4 + compound 1 0.1 mg/mL, result in words
# [5] = Olive Oil + Compound 1 0.1 mg/mL in potable water, 8 weeks, mean ± SD
# [6] = Olive Oil + Compound 1 0.1 mg/mL in potable water, 8 weeks
# [7] = HX (+) group, 0.3 mg/mL in potable water, 8 weeks, total 7 animals
smiles,measurement,setting,value
"CCCCCCOc1cc(C)c(O)c(C)c1C [Compound 1, 2,3,5-trimethyl hydroquinone-1-hexylether]",HA,"[1]; CCl4 + Compound 1 0.1 mg/mL in potable water, 8 weeks, marker of hepatic fibrosis, mean ± SD",237.7 ± 36.6*^+ ng/mL
same,ALB,[1]; [3],3.8 ± 0.2*^+ g/dL
same,ALT,[1]; [3],422.4 ± 60.5**^++ IU/L
same,AST,[1]; [3],603.6 ± 126.3**^++ IU/L
same,T-Bil,[1]; [3],0.03 ± 0.02^+ mg/dL
same,Body weight,[1]; [3],240.8 ± 8.7 g
same,Hepatic relative weight,[1]; [3],16.1 ± 1.8^+ g (per 100 grams of body weight)
same,Pancreatic relative weight,[1]; [3],0.28 ± 0.01^+ g (per 100 grams of body weight)
same,Number of animals with ascites retention,"[1]; CCl4 + Compound 1 0.1 mg/mL in potable water, 8 weeks",1
same,increase in TGF-β1 mRNA-expression level in the liver (RT-PCR),"[1]; CCl4 + compound 1 0.1 mg/mL, FIG. 2",suppressing increase
same,increase in type-I collagen mRNA-expression level in the liver (RT-PCR),"[1]; CCl4 + compound 1 0.1 mg/mL, FIG. 3",suppressing increase
same,"accumulation of fibrous tissue (histopathologic inspection, Masson staining)","[1]; CCl4 + compound 1 0.1 mg/mL, hepatic tissue, FIG. 4",suppressed
same,"expression of TGF-β1 (histopathologic inspection, immunohistochemical staining)","[1]; CCl4 + compound 1 0.1 mg/mL, hepatic tissue, FIG. 5",suppressed
same,increase in ALT due to administration of carbon tetrachloride,[1]; [4],suppressing increase
same,increase in AST due to administration of carbon tetrachloride,[1]; [4],suppressing increase
same,increase in hyaluronan concentration due to administration of carbon tetrachloride,[1]; [4],suppressing increase
same,ALB,[1]; [5],4.3 ± 0.1 g/dL
same,ALT,[1]; [5],93.7 ± 34.1 IU/L
same,AST,[1]; [5],192.7 ± 93.4 IU/L
same,HA,[1]; [5],136.7 ± 16.6 ng/mL
same,T-Bil,[1]; [6],0 mg/dL
same,Body weight,[1]; [5],361.5 ± 1.5 g
same,Hepatic relative weight,[1]; [5],14.8 ± 1.5 g (per 100 grams of body weight)
same,Pancreatic relative weight,[1]; [5],0.20 ± 0.01 g (per 100 grams of body weight)
same,Number of animals with ascites retention,[1]; [6],0
same,abnormality in olive oil-plus-compound 1 administration group,"[1]; olive oil + compound 1 0.1 mg/mL in potable water, 8 weeks",no appreciable abnormality
same,increase in mRNA-expression level of Naofen in the liver (RT-PCR),"[2]; CCl4 + compound 1 0.3 mg/mL in potable water, weeks 6(+), weeks 8(+), FIG. 1",suppressed
same,number of animals with serum antibody valency of Naofen 4 < V < 16 (ELISA),[2]; [7],1
same,number of animals with serum antibody valency of Naofen V <= 4 (ELISA),[2]; [7],4
same,number of animals with serum antibody valency of Naofen V >= 16 (ELISA),[2]; [7],2
same,abnormality in olive oil-plus-compound 1 administration group,"[2]; olive oil + compound 1 0.3 mg/mL in potable water, 8 weeks",no appreciable abnormality
same,"antibody valency increase more than 16 times, compound 1 group (+) versus group (−), Fischer direct probability","[2]; serum antibody valency of Naofen, 0.3 mg/mL in potable water",significantly fewer
